The structures appear in SMILES notation. Activity calls are given as the source filed them. The rule behind the calls is not given here.

The subject of assay [1] is T-cell. The assay can be described thus: Immunosuppressive activity against human peripheral blood T cells assessed as inhibition of PMA and anti-CD28 monoclonal antibody-costimulated IL2 secretion at 50 ug/ml by ELISA. The class given is functional, cell-based. For orientation: An ELISA detects its analyte on a solid surface through an enzyme-linked reagent.
Assay [2] concerns T-cell. The assay can be described thus: Immunosuppressive activity against human peripheral blood T cells assessed as inhibition of PMA and anti-CD28 monoclonal antibody-costimulated IL2 secretion at 100 ug/ml by ELISA. Format: functional, cell-based.

`C[C@]1(O)C[C@@H](O)[C@@H]2C(C(=O)O)=CO[C@@H](O[C@@H]3O[C@H](CO)[C@@H](O)[C@H](O)[C@H]3O)[C@@H]21`: the result with T-cell [1] and in the assay with T-cell [2] was Active. In the case of `COC(=O)C1=CO[C@@H](O[C@@H]2O[C@H](CO)[C@@H](O)[C@H](O)[C@H]2O)[C@@H]2C(CO)=CC[C@H]12`, the outcome in the assay with T-cell [1] and in the assay on T-cell [2] was Active. Consider `COC(=O)C1=CO[C@@H](O[C@@H]2O[C@H](CO)[C@@H](O)[C@H](O)[C@H]2O)[C@@H]2C(CO)=C[C@H](O)[C@H]12`, for which the outcome in the assay on T-cell [1] and in the assay with T-cell [2] was Active.

`COC(=O)C1=CO[C@@H](O[C@@H]2O[C@H](CO[C@@H]3O[C@H](CO)[C@@H](O)[C@H](O)[C@H]3O)[C@@H](O)[C@H](O)[C@H]2O)[C@@H]2C(CO)=CC[C@H]12`: in the assay with T-cell [2], the outcome was Active. For the compound `C[C@]1(O)C[C@H](O)[C@@H]2C(C=O)=CO[C@@H](O[C@@H]3O[C@H](CO)[C@@H](O)[C@H](O)[C@H]3O)[C@@H]21`, the outcome with T-cell [1] and in the assay with T-cell [2] was Active. Take `COC(=O)C1=CO[C@@H](O[C@@H]2O[C@H](CO)[C@@H](O)[C@H](O)[C@H]2O)[C@@H]2C(CO)=C[C@@H](O)[C@H]12`: the result in the assay with T-cell [2] was Active.

Source of the values: ChEMBL document CHEMBL1158838, “Immunosuppressive iridoids from the fruits of Gardenia jasminoides” (J Nat Prod, 2005).
